Experimental data from publication PMC10447463, “Data-mining unveils structure–property–activity correlation of viral infectivity enhancing self-assembling peptides” (Nature Communications, 2023).
Like-named read-outs stand apart in the source and are kept apart here.

Experiments:
[1] = previously reported peptides only; ref sieste 2021 or Schilling2019; cited from earlier work
Description: Supplement 41467_2023_40663_MOESM7_ESM.zip/FigS17.csv, table | column: Conversion Rate / % ( from sieste 2021 or Schilling2019)

[2] = Conversion rate (CR) assay with fluorescamine; type: physicochemical
How it was run: (§1)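 Measurements on freeze-dried PNF powders used a diamond ATR element, 64 scans each, with β-sheet fraction derived as previously reported. CR reflects loss of fluorescamine-reactive monomer after 3 kDa ultrafiltration, averaged over triplicates.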

[3] = β-sheet content by ATR-FT-IR; type: physicochemical
How it was run: as §1

[4] = Aggregate analysis by widefield fluorescence microscopy; type: physicochemical
How it was run: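 Fibrils aged 1 d RT in PBS; ThT stain (50 µM) at 0.1 mg/mL peptide; 10x air objective; ex 480/40 / em 527/30 nm; brightfield in parallel for ThT-negative aggregates; objects >10 µm^2 quantified, ≥3 images, mean ± SD.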

[5] = Fig S8 panels A, C, 3 fields of 1330 µm x 1330 µm
[6] = Fig S8 panels B, D, average aggregate area, 3 fields of 1330 µm x 1330 µm
[7] = Fig S8 panels B, D, median aggregate area, 3 fields of 1330 µm x 1330 µm
[8] = Fig S8 panels B, D, 3 fields of 1330 µm x 1330 µm
[9] = Fig S8 panels B, D, widefield fluorescence microscopy, 3 fields of 1330 µm x 1330 µm

Row | Substance | Conversion Rate / % ( from sieste 2021 or Schilling2019) [1] [%] | Conversion Rate / % ([2]; fluorescamine assay) [%] | FTIR ß-sheet content/ % ([3]; ATR-FT-IR) [%] | Conversion Rate / % [2] [%] | FTIR ß-sheet content/ % [3] [%] | Avg Area in 3 *(1330 µm *1330 µm) ([4]; Fig S8 panels A, C) | Log 10 Number of aggregates in 3 * (1330 µm *1330 µm) ([4]; Fig S8 panels A, C) | Median Area in 3 * (1330 µm *1330 µm) ([4]; Fig S8 panels A, C) | log Avg Area in 3 * ( (1330 µm *1330 µm)) ([4]; Fig S8 panels A, C) | log Median Area in 3 * ( (1330 µm *1330 µm)) ([4]; Fig S8 panels A, C) | log Total Area of all particles in 3 * (1330 µm *1330 µm) ([4]; Fig S8 panels A, C) | Number of aggregates in 3 * (1330 µm *1330 µm) [4, 5] | Avg Area in 3 *(1330 µm *1330 µm) [4, 6] | Median Area in 3 * (1330 µm *1330 µm) [4, 7] | Total Area of all particles in 3 * (1330 µm *1330 µm) [4, 8] | Number of aggregates in 3 * (1330 µm *1330 µm) [4, 9]
1 | KIKIQIII [TG7] | 87 | – | – | – | – | – | – | – | – | – | – | – | – | – | – | –
2 | RLRLTLC [CN13] | – | 87.44 | 20.69 | – | – | – | – | – | – | – | – | – | – | – | – | –
3 | RGDKIKIQINM [MG8a / CN17] | 48 | 73.83 | 45.52 | 73.83 | 45.52 | – | – | – | – | – | – | – | – | – | – | –
4 | EIEIQINMWQ [VH8] | – | – | – | 89.92 | 53.91 | – | – | – | – | – | – | – | – | – | – | –
5 | RGDSGGGGGGKIKIQIC [TM114 / RC17] | – | – | – | – | – | 372.8 | 1.857 | 53.0945 | 2.572 | 1.725 | 4.429 | 72 | 372.8 | 53.0945 | 26843.97667 | 72
6 | HHHHKIKIQINMYYYY [TM16] | – | 98.42 | 46.73 | – | – | 97.09 | 2.3686 | 27.74 | 1.987 | 1.443 | 4.356 | 233.7 | 97.09 | 27.74 | 22686.609 | 233.7
7 | KIKIQIN [JGB3] | – | – | – | – | – | 197.4 | 0.6021 | 197.8005 | 2.295 | 2.296 | 2.897 | 4 | 197.4 | 197.8005 | 789.7 | 4
8 | HLHLPLL [CN14] | – | 37.51 | 49.19 | – | – | – | – | – | – | – | – | – | – | – | – | –
9 | EIEIQINM [TM95 / (TM75)] | – | – | – | 79.85 | 53.87 | – | – | – | – | – | – | – | – | – | – | –
10 | KIKQIIN [JGA3] | – | – | – | – | – | 51.51 | 1.067 | 15.7 | 1.712 | 1.196 | 2.779 | 11.67 | 51.51 | 15.7 | 600.94 | 11.67
11 | HIHIQIC [CN12] | – | 82.72 | 48.25 | – | – | 747.6 | 1.523 | 85.979 | 2.874 | 1.934 | 4.397 | 33.33 | 747.6 | 85.979 | 24920.46633 | 33.33
12 | RGEKIKIQINM [CN18] | – | 80.28 | 43.05 | – | – | – | – | – | – | – | – | – | – | – | – | –
13 | RGECKFKFQF [CN16] | – | 98.71 | 46.18 | – | – | – | – | – | – | – | – | – | – | – | – | –
14 | KFKFQFFF [TG12] | 99 | 97.92 | 49.11 | 97.92 | 49.11 | – | – | – | – | – | – | – | – | – | – | –
